PubChem BioAssay AID1259407 (Chemical Carcinogenesis Research Information System (CCRIS), 2018)
Active and inactive are the calls of the source. How the calls were made is not given here.

System: CCRIS mutagenicity, Ames/micronucleus/aberration tests
Assay: CCRIS mutagenicity studies
[1] = Test System: AMES SALMONELLA TYPHIMURIUM, Strain/Indicator: TA98, Metabolic Activation: NONE, Method: PREINCUBATION
[2] = Test System: AMES SALMONELLA TYPHIMURIUM, Strain/Indicator: TA100, Metabolic Activation: NONE, Method: PREINCUBATION
[3] = Test System: AMES SALMONELLA TYPHIMURIUM, Strain/Indicator: TA1535, Metabolic Activation: NONE, Method: PREINCUBATION
[4] = Test System: AMES SALMONELLA TYPHIMURIUM, Strain/Indicator: TA1537, Metabolic Activation: NONE, Method: PREINCUBATION

For `Cc1cccc(Br)c1`, which mutagenic call (Test System: AMES SALMONELLA TYPHIMURIUM, Strain/Indicator: TA97, Metabolic Activation: HAMSTER, LIVER, S-9, AROCLOR 1254 (10%), Method: PREINCUBATION) is on record?
The mutagenic call was “inactive; negative”.

And the mutagenic call (Test System: AMES SALMONELLA TYPHIMURIUM, Strain/Indicator: TA97, Metabolic Activation: HAMSTER, LIVER, S-9, AROCLOR 1254 (30%), Method: PREINCUBATION)?
The mutagenic call was “inactive; negative”.

And the mutagenic call (Test System: AMES SALMONELLA TYPHIMURIUM, Strain/Indicator: TA97, Metabolic Activation: NONE, Method: PREINCUBATION)?
The mutagenic call was “inactive; negative”.

And the mutagenic call (Test System: AMES SALMONELLA TYPHIMURIUM, Strain/Indicator: TA97, Metabolic Activation: RAT, LIVER, S-9, AROCLOR 1254 (10%), Method: PREINCUBATION)?
Its mutagenic call is “inactive; negative”.

What about the mutagenic call (Test System: AMES SALMONELLA TYPHIMURIUM, Strain/Indicator: TA97, Metabolic Activation: RAT, LIVER, S-9, AROCLOR 1254 (30%), Method: PREINCUBATION) of the same compound?
The mutagenic call was “inactive; negative”.

And the mutagenic call (Test System: AMES SALMONELLA TYPHIMURIUM, Strain/Indicator: TA98, Metabolic Activation: HAMSTER, LIVER, S-9, AROCLOR 1254 (10%), Method: PREINCUBATION)?
Its mutagenic call is “inactive; negative”.

What about the mutagenic call (Test System: AMES SALMONELLA TYPHIMURIUM, Strain/Indicator: TA98, Metabolic Activation: HAMSTER, LIVER, S-9, AROCLOR 1254 (30%), Method: PREINCUBATION) of the same compound?
Its mutagenic call is “inactive; negative”.

And the mutagenic call [1]?
Its mutagenic call is “inactive; negative”.

What about the mutagenic call (Test System: AMES SALMONELLA TYPHIMURIUM, Strain/Indicator: TA98, Metabolic Activation: RAT, LIVER, S-9, AROCLOR 1254 (10%), Method: PREINCUBATION) of the same compound?
The mutagenic call was “inactive; negative”.

And the mutagenic call (Test System: AMES SALMONELLA TYPHIMURIUM, Strain/Indicator: TA98, Metabolic Activation: RAT, LIVER, S-9, AROCLOR 1254 (30%), Method: PREINCUBATION)?
The mutagenic call was “inactive; negative”.

And the mutagenic call (Test System: AMES SALMONELLA TYPHIMURIUM, Strain/Indicator: TA100, Metabolic Activation: HAMSTER, LIVER, S-9, AROCLOR 1254 (10%), Method: PREINCUBATION)?
Its mutagenic call is “inactive; negative”.

And the mutagenic call (Test System: AMES SALMONELLA TYPHIMURIUM, Strain/Indicator: TA100, Metabolic Activation: HAMSTER, LIVER, S-9, AROCLOR 1254 (30%), Method: PREINCUBATION)?
Its mutagenic call is “inactive; negative”.

And the mutagenic call [2]?
The mutagenic call was “inactive; negative”.

What about the mutagenic call (Test System: AMES SALMONELLA TYPHIMURIUM, Strain/Indicator: TA100, Metabolic Activation: RAT, LIVER, S-9, AROCLOR 1254 (10%), Method: PREINCUBATION) of the same compound?
The mutagenic call was “inactive; negative”.

And the mutagenic call (Test System: AMES SALMONELLA TYPHIMURIUM, Strain/Indicator: TA100, Metabolic Activation: RAT, LIVER, S-9, AROCLOR 1254 (30%), Method: PREINCUBATION)?
Its mutagenic call is “inactive; negative”.

And the mutagenic call (Test System: AMES SALMONELLA TYPHIMURIUM, Strain/Indicator: TA1535, Metabolic Activation: HAMSTER, LIVER, S-9, AROCLOR 1254 (10%), Method: PREINCUBATION)?
Its mutagenic call is “inactive; negative”.

And the mutagenic call (Test System: AMES SALMONELLA TYPHIMURIUM, Strain/Indicator: TA1535, Metabolic Activation: HAMSTER, LIVER, S-9, AROCLOR 1254 (30%), Method: PREINCUBATION)?
Its mutagenic call is “inactive; negative”.

And the mutagenic call [3]?
The mutagenic call was “inactive; negative”.

What about the mutagenic call (Test System: AMES SALMONELLA TYPHIMURIUM, Strain/Indicator: TA1535, Metabolic Activation: RAT, LIVER, S-9, AROCLOR 1254 (10%), Method: PREINCUBATION) of the same compound?
The mutagenic call was “inactive; negative”.

What about the mutagenic call (Test System: AMES SALMONELLA TYPHIMURIUM, Strain/Indicator: TA1535, Metabolic Activation: RAT, LIVER, S-9, AROCLOR 1254 (30%), Method: PREINCUBATION) of the same compound?
The mutagenic call was “inactive; negative”.

What about the mutagenic call (Test System: AMES SALMONELLA TYPHIMURIUM, Strain/Indicator: TA1537, Metabolic Activation: HAMSTER, LIVER, S-9, AROCLOR 1254 (30%), Method: PREINCUBATION) of the same compound?
Its mutagenic call is “inactive; negative”.

And the mutagenic call [4]?
Its mutagenic call is “inactive; negative”.

What about the mutagenic call (Test System: AMES SALMONELLA TYPHIMURIUM, Strain/Indicator: TA1537, Metabolic Activation: RAT, LIVER, S-9, AROCLOR 1254 (30%), Method: PREINCUBATION) of the same compound?
The mutagenic call was “inactive; negative”.

What does the source list for `N#[N+]c1cccc2c1C(=O)c1ccccc1C2=O`?
mutagenic call (Test System: AMES SALMONELLA TYPHIMURIUM, Strain/Indicator: TA98, Metabolic Activation: NONE, Method: STANDARD PLATE): inactive; negative; mutagenic call (Test System: AMES SALMONELLA TYPHIMURIUM, Strain/Indicator: TA98, Metabolic Activation: RAT, LIVER, S-9, AROCLOR 1254, Method: STANDARD PLATE): active; positive; mutagenic call (Test System: AMES SALMONELLA TYPHIMURIUM, Strain/Indicator: TA100, Metabolic Activation: NONE, Method: STANDARD PLATE): inactive; negative; mutagenic call (Test System: AMES SALMONELLA TYPHIMURIUM, Strain/Indicator: TA100, Metabolic Activation: RAT, LIVER, S-9, AROCLOR 1254, Method: STANDARD PLATE): active; positive; mutagenic call (Test System: AMES SALMONELLA TYPHIMURIUM, Strain/Indicator: TA1535, Metabolic Activation: NONE, Method: STANDARD PLATE): inactive; negative; mutagenic call (Test System: AMES SALMONELLA TYPHIMURIUM, Strain/Indicator: TA1537, Metabolic Activation: NONE, Method: STANDARD PLATE): active; positive; mutagenic call (Test System: AMES SALMONELLA TYPHIMURIUM, Strain/Indicator: TA1537, Metabolic Activation: RAT, LIVER, S-9, AROCLOR 1254, Method: STANDARD PLATE): active; positive

`C=CCOC(=O)c1ccccc1C(=O)OCC=C` was tested. Which mutagenic call (End Point: IN VITRO CHROMOSOMAL ABERRATIONS, Test System: CHO CELLS, Metabolic Activation: RAT, LIVER, S-9, AROCLOR 1254) did it give?
The mutagenic call was “active; positive; weak response”.

And the mutagenic call (Test System: AMES SALMONELLA TYPHIMURIUM, Strain/Indicator: TA98, Metabolic Activation: HAMSTER, LIVER, S-9, AROCLOR 1254, Method: PREINCUBATION)?
The mutagenic call was “inactive; negative”.

And the mutagenic call [1]?
The mutagenic call was “inactive; negative”.

What about the mutagenic call (Test System: AMES SALMONELLA TYPHIMURIUM, Strain/Indicator: TA98, Metabolic Activation: RAT LIVER S-9, PHENOBARBITAL AND BETA-NAPHTHOFLAVONE, Method: PREINCUBATION) of the same compound?
The mutagenic call was “inactive; negative”.

What about the mutagenic call (Test System: AMES SALMONELLA TYPHIMURIUM, Strain/Indicator: TA98, Metabolic Activation: RAT, LIVER, S-9, AROCLOR 1254, Method: PREINCUBATION) of the same compound?
The mutagenic call was “inactive; negative”.

And the mutagenic call (Test System: AMES SALMONELLA TYPHIMURIUM, Strain/Indicator: TA100, Metabolic Activation: HAMSTER, LIVER, S-9, AROCLOR 1254, Method: PREINCUBATION)?
Its mutagenic call is “inactive; negative”.

And the mutagenic call [2]?
The mutagenic call was “inactive; negative”.

And the mutagenic call (Test System: AMES SALMONELLA TYPHIMURIUM, Strain/Indicator: TA100, Metabolic Activation: RAT LIVER S-9, PHENOBARBITAL AND BETA-NAPHTHOFLAVONE, Method: PREINCUBATION)?
The mutagenic call was “inactive; negative”.

And the mutagenic call (Test System: AMES SALMONELLA TYPHIMURIUM, Strain/Indicator: TA100, Metabolic Activation: RAT, LIVER, S-9, AROCLOR 1254, Method: PREINCUBATION)?
The mutagenic call was “inactive; negative”.

What about the mutagenic call (Test System: AMES SALMONELLA TYPHIMURIUM, Strain/Indicator: TA1535, Metabolic Activation: HAMSTER, LIVER, S-9, AROCLOR 1254, Method: PREINCUBATION) of the same compound?
Its mutagenic call is “inactive; negative”.

And the mutagenic call [3]?
The mutagenic call was “inactive; negative”.

What about the mutagenic call (Test System: AMES SALMONELLA TYPHIMURIUM, Strain/Indicator: TA1535, Metabolic Activation: RAT LIVER S-9, PHENOBARBITAL AND BETA-NAPHTHOFLAVONE, Method: PREINCUBATION) of the same compound?
The mutagenic call was “inactive; negative”.

And the mutagenic call (Test System: AMES SALMONELLA TYPHIMURIUM, Strain/Indicator: TA1535, Metabolic Activation: RAT, LIVER, S-9, AROCLOR 1254, Method: PREINCUBATION)?
The mutagenic call was “inactive; negative”.

What about the mutagenic call (Test System: AMES SALMONELLA TYPHIMURIUM, Strain/Indicator: TA1537, Metabolic Activation: HAMSTER, LIVER, S-9, AROCLOR 1254, Method: PREINCUBATION) of the same compound?
The mutagenic call was “inactive; negative”.

And the mutagenic call [4]?
Its mutagenic call is “inactive; negative”.

And the mutagenic call (Test System: AMES SALMONELLA TYPHIMURIUM, Strain/Indicator: TA1537, Metabolic Activation: RAT LIVER S-9, PHENOBARBITAL AND BETA-NAPHTHOFLAVONE, Method: PREINCUBATION)?
Its mutagenic call is “inactive; negative”.

And the mutagenic call (Test System: AMES SALMONELLA TYPHIMURIUM, Strain/Indicator: TA1537, Metabolic Activation: RAT, LIVER, S-9, AROCLOR 1254, Method: PREINCUBATION)?
The mutagenic call was “inactive; negative”.

What about the mutagenic call (Test System: E.COLI, Strain/Indicator: WP2UVRA/PKM101, Metabolic Activation: NONE, Method: PREINCUBATION) of the same compound?
Its mutagenic call is “inactive; negative”.

And the mutagenic call (Test System: E.COLI, Strain/Indicator: WP2UVRA/PKM101, Metabolic Activation: RAT LIVER S-9, PHENOBARBITAL AND BETA-NAPHTHOFLAVONE, Method: PREINCUBATION)?
Its mutagenic call is “inactive; negative”.
